7 compounds from article PMC4676015, “Variant fatty acid-like molecules Conjugation, novel approaches for extending the stability of therapeutic peptides” (Scientific Reports, 2015) can be followed below.

SMILES strings stand for the structures.

The test addresses T1, GLP-1 receptor (GLP-1R) (Rattus norvegicus, UniProt P32301).
T1 construct: endogenous in cells; host or cells: rat INS-1 cells
T1 sequence (P32301 22-463): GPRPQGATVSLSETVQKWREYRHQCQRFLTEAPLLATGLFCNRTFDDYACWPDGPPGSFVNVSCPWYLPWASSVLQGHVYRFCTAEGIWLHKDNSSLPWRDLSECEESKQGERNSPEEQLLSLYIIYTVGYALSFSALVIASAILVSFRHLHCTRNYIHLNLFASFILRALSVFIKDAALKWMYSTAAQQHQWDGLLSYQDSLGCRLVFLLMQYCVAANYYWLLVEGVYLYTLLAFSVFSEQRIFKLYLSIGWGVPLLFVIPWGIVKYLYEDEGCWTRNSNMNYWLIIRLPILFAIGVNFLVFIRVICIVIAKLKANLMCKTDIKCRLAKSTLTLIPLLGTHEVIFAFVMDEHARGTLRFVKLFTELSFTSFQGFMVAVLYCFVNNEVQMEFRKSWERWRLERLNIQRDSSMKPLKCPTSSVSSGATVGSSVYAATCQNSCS
As to the kind of experiment: GLP-1 receptor binding assay (cellular ELISA). Here is the method: Cells were rinsed with PBS and fixed with 4% paraformaldehyde (Thermo Scientific) for 10 min at room temperature and quenched for 5 min with 2% glycine in PBS, pH 7.5. […] After a 2 h incubation at 37 °C in a final volume of 100 μl, the excess peptides were washed, and the cells were blocked with 5% BSA (BD Biosciences). […] Colorimetric changes were analyzed by reading the absorbance at 450 nm in a SpectraMax M5 (Molecular Device) microplate reader. The peptide concentration was plotted against UV absorbance, and the Kd was calculated using Origin 7.0 software.
Background: ELISA stands for enzyme-linked immunosorbent assay.
For orientation: Kd means the constant that tells how readily two partners part at equilibrium. A higher Kd goes with a looser complex. `CCCCCCCC(=O)NCCCC[C@H](NC(=O)[C@H](C)NC(=O)[C@H](C)NC(=O)[C@H](CCC(N)=O)NC(=O)CNC(=O)[C@H](CCC(=O)O)NC(=O)[C@H](CC(C)C)NC(=O)[C@H](Cc1ccc(O)cc1)NC(=O)[C@H](CO)NC(=O)[C@H](CO)NC(=O)[C@@H](NC(=O)[C@H](CC(=O)O)NC(=O)[C@H](CO)NC(=O)[C@@H](NC(=O)[C@H](Cc1ccccc1)NC(=O)[C@@H](NC(=O)CNC(=O)[C@H](CCC(=O)O)NC(=O)[C@H](C)NC(=O)[C@@H](N)Cc1c[nH]cn1)[C@@H](C)O)[C@@H](C)O)C(C)C)C(=O)N[C@@H](CCC(=O)O)C(=O)N[C@@H](Cc1ccccc1)C(=O)N[C@H](C(=O)N[C@@H](C)C(=O)N[C@@H](Cc1c[nH]c2ccccc12)C(=O)N[C@@H](CC(C)C)C(=O)N[C@H](C(=O)N[C@@H](CCCCN)C(=O)NCC(=O)N[C@@H](CCCNC(=N)N)C(=O)NCC(=O)O)C(C)C)[C@@H](C)CC` [compound 1]: binding was characterised by a dissociation constant (Kd) of 36.2 ± 0.95 nM.
In turn, `CCCCCCCCCCCC(=O)NCCCC[C@H](NC(=O)[C@H](C)NC(=O)[C@H](C)NC(=O)[C@H](CCC(N)=O)NC(=O)CNC(=O)[C@H](CCC(=O)O)NC(=O)[C@H](CC(C)C)NC(=O)[C@H](Cc1ccc(O)cc1)NC(=O)[C@H](CO)NC(=O)[C@H](CO)NC(=O)[C@@H](NC(=O)[C@H](CC(=O)O)NC(=O)[C@H](CO)NC(=O)[C@@H](NC(=O)[C@H](Cc1ccccc1)NC(=O)[C@@H](NC(=O)CNC(=O)[C@H](CCC(=O)O)NC(=O)[C@H](C)NC(=O)[C@@H](N)Cc1c[nH]cn1)[C@@H](C)O)[C@@H](C)O)C(C)C)C(=O)N[C@@H](CCC(=O)O)C(=O)N[C@@H](Cc1ccccc1)C(=O)N[C@H](C(=O)N[C@@H](C)C(=O)N[C@@H](Cc1c[nH]c2ccccc12)C(=O)N[C@@H](CC(C)C)C(=O)N[C@H](C(=O)N[C@@H](CCCCN)C(=O)NCC(=O)N[C@@H](CCCNC(=N)N)C(=O)NCC(=O)O)C(C)C)[C@@H](C)CC` [compound 2] yielded a Kd of 39.9 ± 1.27 nM.
To `CCCCCCCCCCCCCCCC(=O)NCCCC[C@H](NC(=O)[C@H](C)NC(=O)[C@H](C)NC(=O)[C@H](CCC(N)=O)NC(=O)CNC(=O)[C@H](CCC(=O)O)NC(=O)[C@H](CC(C)C)NC(=O)[C@H](Cc1ccc(O)cc1)NC(=O)[C@H](CO)NC(=O)[C@H](CO)NC(=O)[C@@H](NC(=O)[C@H](CC(=O)O)NC(=O)[C@H](CO)NC(=O)[C@@H](NC(=O)[C@H](Cc1ccccc1)NC(=O)[C@@H](NC(=O)CNC(=O)[C@H](CCC(=O)O)NC(=O)[C@H](C)NC(=O)[C@@H](N)Cc1c[nH]cn1)[C@@H](C)O)[C@@H](C)O)C(C)C)C(=O)N[C@@H](CCC(=O)O)C(=O)N[C@@H](Cc1ccccc1)C(=O)N[C@H](C(=O)N[C@@H](C)C(=O)N[C@@H](Cc1c[nH]c2ccccc12)C(=O)N[C@@H](CC(C)C)C(=O)N[C@H](C(=O)N[C@@H](CCCCN)C(=O)NCC(=O)N[C@@H](CCCNC(=N)N)C(=O)NCC(=O)O)C(C)C)[C@@H](C)CC` [compound 3] belongs 33.8 ± 1.21 nM; to `CCCCCCCC(=O)NCCCC[C@H](NC(=O)[C@@H](NC(=O)[C@H](CC(C)C)NC(=O)[C@H](Cc1c[nH]c2ccccc12)NC(=O)[C@H](C)NC(=O)[C@@H](NC(=O)[C@H](Cc1ccccc1)NC(=O)[C@H](CCC(=O)O)NC(=O)[C@H](CCCCN)NC(=O)[C@H](C)NC(=O)[C@H](C)NC(=O)[C@H](CCC(N)=O)NC(=O)CNC(=O)[C@H](CCC(=O)O)NC(=O)[C@H](CC(C)C)NC(=O)[C@H](Cc1ccc(O)cc1)NC(=O)[C@H](CO)NC(=O)[C@H](CO)NC(=O)[C@@H](NC(=O)[C@H](CC(=O)O)NC(=O)[C@H](CO)NC(=O)[C@@H](NC(=O)[C@H](Cc1ccccc1)NC(=O)[C@@H](NC(=O)CNC(=O)[C@H](CCC(=O)O)NC(=O)[C@H](C)NC(=O)[C@@H](N)Cc1c[nH]cn1)[C@@H](C)O)[C@@H](C)O)C(C)C)[C@@H](C)CC)C(C)C)C(=O)NCC(=O)N[C@@H](CCCNC(=N)N)C(=O)NCC(=O)O` [compound 4], 15.4 ± 0.67 nM; to `CCCCCCCCCCCC(=O)NCCCC[C@H](NC(=O)[C@@H](NC(=O)[C@H](CC(C)C)NC(=O)[C@H](Cc1c[nH]c2ccccc12)NC(=O)[C@H](C)NC(=O)[C@@H](NC(=O)[C@H](Cc1ccccc1)NC(=O)[C@H](CCC(=O)O)NC(=O)[C@H](CCCCN)NC(=O)[C@H](C)NC(=O)[C@H](C)NC(=O)[C@H](CCC(N)=O)NC(=O)CNC(=O)[C@H](CCC(=O)O)NC(=O)[C@H](CC(C)C)NC(=O)[C@H](Cc1ccc(O)cc1)NC(=O)[C@H](CO)NC(=O)[C@H](CO)NC(=O)[C@@H](NC(=O)[C@H](CC(=O)O)NC(=O)[C@H](CO)NC(=O)[C@@H](NC(=O)[C@H](Cc1ccccc1)NC(=O)[C@@H](NC(=O)CNC(=O)[C@H](CCC(=O)O)NC(=O)[C@H](C)NC(=O)[C@@H](N)Cc1c[nH]cn1)[C@@H](C)O)[C@@H](C)O)C(C)C)[C@@H](C)CC)C(C)C)C(=O)NCC(=O)N[C@@H](CCCNC(=N)N)C(=O)NCC(=O)O` [compound 5], 14.3 ± 1.1 nM.
To `CCCCCCCCNC(=O)CC[C@H](NC(=O)[C@H](C)NC(=O)[C@@H](N)Cc1c[nH]cn1)C(=O)NCC(=O)N[C@H](C(=O)N[C@@H](Cc1ccccc1)C(=O)N[C@H](C(=O)N[C@@H](CO)C(=O)N[C@@H](CC(=O)O)C(=O)N[C@H](C(=O)N[C@@H](CO)C(=O)N[C@@H](CO)C(=O)N[C@@H](Cc1ccc(O)cc1)C(=O)N[C@@H](CC(C)C)C(=O)N[C@@H](CCC(=O)O)C(=O)NCC(=O)N[C@@H](CCC(N)=O)C(=O)N[C@@H](C)C(=O)N[C@@H](C)C(=O)N[C@@H](CCCCN)C(=O)N[C@@H](CCC(=O)O)C(=O)N[C@@H](Cc1ccccc1)C(=O)N[C@H](C(=O)N[C@@H](C)C(=O)N[C@@H](Cc1c[nH]c2ccccc12)C(=O)N[C@@H](CC(C)C)C(=O)N[C@H](C(=O)N[C@@H](CCCCN)C(=O)NCC(=O)N[C@@H](CCCNC(=N)N)C(=O)NCC(=O)O)C(C)C)[C@@H](C)CC)C(C)C)[C@@H](C)O)[C@@H](C)O` [compound 7] belongs 104 ± 3.42 nM; to `CCCCCCCCCCCCNC(=O)CC[C@H](NC(=O)[C@H](C)NC(=O)[C@@H](N)Cc1c[nH]cn1)C(=O)NCC(=O)N[C@H](C(=O)N[C@@H](Cc1ccccc1)C(=O)N[C@H](C(=O)N[C@@H](CO)C(=O)N[C@@H](CC(=O)O)C(=O)N[C@H](C(=O)N[C@@H](CO)C(=O)N[C@@H](CO)C(=O)N[C@@H](Cc1ccc(O)cc1)C(=O)N[C@@H](CC(C)C)C(=O)N[C@@H](CCC(=O)O)C(=O)NCC(=O)N[C@@H](CCC(N)=O)C(=O)N[C@@H](C)C(=O)N[C@@H](C)C(=O)N[C@@H](CCCCN)C(=O)N[C@@H](CCC(=O)O)C(=O)N[C@@H](Cc1ccccc1)C(=O)N[C@H](C(=O)N[C@@H](C)C(=O)N[C@@H](Cc1c[nH]c2ccccc12)C(=O)N[C@@H](CC(C)C)C(=O)N[C@H](C(=O)N[C@@H](CCCCN)C(=O)NCC(=O)N[C@@H](CCCNC(=N)N)C(=O)NCC(=O)O)C(C)C)[C@@H](C)CC)C(C)C)[C@@H](C)O)[C@@H](C)O` [compound 8], 96.7 ± 2.95 nM.
